Among the data in patent US9199975B2, “Biaryl imidazole derivatives for regulating CYP17” (Asana Biosciences, LLC, priority 2011, dated 2015) are IC50 values, retold here.

The structures appear in SMILES notation.

The first assay concerns testosterone production in H295R cells. The assay is described as follows: Cell-based functional assay for testosterone production in H295R cells. As to conditions: Homo sapiens, NCI-H295R, 72 hours, testosterone ELISA, read-out: Testosterone (human H295R adrenal cells). As to the method:
Cell-based Functional Assay for Testosterone Production
H295R cells (ATCC Number CRL-2128) were subcultured, seeded (30,000 cells per well in a poly-d lysine plate) and left overnight at 37° C. The next day (after approximately 24 hours), the media were removed and 200 μL fresh media were added. Then, 50 μL of serially diluted compounds was added from a 5× plate. The serial dilution in the 100× plate (in DMSO) and the stamping of a 5× plate (in media) from the 100× plate were carried out using a TECAN liquid handling device. The plate was incubated at 37° C. for 72 hours. After incubation, the media was removed, diluted 5 to 10 times with calibration diluent RD5-48, and the assay performed as per manufacturer's protocol (Parameter Testosterone Assay, Cat. No. KGE010, R&D systems; http://www.rndsystems.com/pdf/KGE010.pdf).
For `CC(c1cnc(-c2ccc(F)cc2F)s1)n1ccnc1` (stereo not drawn) [Example 28, 2-(2,4-Difluoro-phenyl)-5-(1-imidazol-1-yl-ethyl)-thiazole], the IC50 lay in the range of 50 to 200 nM.

Regarding `CC(c1ccc(-c2ccc(=O)n(C(C)C)c2)s1)n1ccnc1` (stereo not drawn) [Example 21, 5-(5-(1-(1H-imidazol-1-yl)ethyl)thiophen-2-yl)-1-isopropylpyridin-2(1H)-one], the IC50 is 201 to 10000 nM. Consider `CC(c1ccc(-c2ccc(F)cc2)cn1)n1ccnc1` (stereo not drawn) [Example 12, 2-(1-(1H-imidazol-1-yl)ethyl)-5-(4-fluorophenyl)pyridine], for which the IC50 lay within 201 to 10000 nM. On to `CC(c1cnc(-c2ccc(C#N)cc2)s1)n1ccnc1` (stereo not drawn) [Example 22, 4-(5-(1-(1H-imidazol-1-yl)ethyl)thiazol-2-yl)benzonitrile], for which the IC50 lay in the range of 201 to 10000 nM. Take `CC(c1ccc(-c2ccc(=O)n(C)c2)s1)n1ccnc1` (stereo not drawn) [Example 20, 5-(5-(1-(1H-imidazol-1-yl)ethyl)thiophen-2-yl)-1-methylpyridin-2(1H)-one]: the IC50 is below 50 nM.

A further assay addresses T1, human CYP17 (Homo sapiens, UniProt P05093).
T1 sequence (P05093 1-508): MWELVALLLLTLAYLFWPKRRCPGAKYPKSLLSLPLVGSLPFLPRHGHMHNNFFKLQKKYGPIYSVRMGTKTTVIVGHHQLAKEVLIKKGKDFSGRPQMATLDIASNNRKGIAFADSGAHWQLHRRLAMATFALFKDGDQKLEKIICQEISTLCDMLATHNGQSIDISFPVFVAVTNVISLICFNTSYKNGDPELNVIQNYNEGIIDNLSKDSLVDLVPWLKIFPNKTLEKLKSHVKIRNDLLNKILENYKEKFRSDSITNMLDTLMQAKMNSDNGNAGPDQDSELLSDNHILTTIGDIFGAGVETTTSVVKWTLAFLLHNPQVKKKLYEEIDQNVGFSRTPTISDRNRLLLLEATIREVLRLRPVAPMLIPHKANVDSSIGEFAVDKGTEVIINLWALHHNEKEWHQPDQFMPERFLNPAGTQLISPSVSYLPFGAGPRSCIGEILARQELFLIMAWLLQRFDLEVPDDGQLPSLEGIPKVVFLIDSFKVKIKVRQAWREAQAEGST
Kind of assay: Cell-based human CYP17 inhibition assay, LNCap-CYP17 cells. The note with it: 16 hours at 37° C. As to the method: Cell-Based Human CYP17 Inhibition Assay
A. Materials • 1. H295R Adrenocortical Carcinoma Cells and Growth Media: The media for the H295R Adrenocortical carcinoma cells [NCI-H295A, ATCC Number CRL-2128, American Type Culture Collection, Manassas, Va., US] (500 mL) was a DMEM:F12 Mix 1:1 with 5% […] BD Nu Serum; 1% (5 mL) ITS+Premix [BD Biosciences] and 1% Penstrep. • 2. LNCap-CYP17 Cells and Growth Media: Full length hCYP17a1 gene (NCBI Reference Sequence: NM_000102.3) was cloned in pCDNA3.1(+) vector between HindIII and XhoI site. The pCDNA3.1(+) vector contains the Neomycin resistance gene and was used for selection of stable cell line. The hCYP17a1 containing pCDNA3.1(+) was transfected into LNCap cells to create the LNCap-CYP17 cell line. The media for the LNCaP-CYP17 cells was RPMI 1640, 10% FBS, 1% PenStrep, Geneticin 400 μg/mL.
The H295R cells or LNCaP-hCYP17 cells were subcultured and 30,000 cells per well were seeded in a poly-d lysine plate and incubated overnight at 37° C. The next day the media was removed and 200 µL of fresh media with ^3H3-17α-hydroxy-pregnenolone (1:1000) was added. 50 μL of serially diluted compounds from a 5× plate (5 times the final desired concentration) was added. The working concentration range for active, new compounds started from a high concentration of […] with 3-fold serial dilutions generating up to 10 concentrations. The serial dilution in the 100× plate (in DMSO) and the stamping of a 5× plate (in media) from the 100× plate were carried out using a TECAN liquid handling device.
The plates were incubated overnight (16 hours) at 37° C. After 16 hours, the media was removed (approximately 220 μL) and an equal amount of chloroform was added, mixed and incubated for 30 minutes at 4 degrees. The plate was centrifuged at 4000 rpm for 15 minutes at 4° C., following which the top aqueous layer was carefully removed and added into a new deep well plate. An equal volume of activated 5% charcoal was added, mixed and incubated for 30 minutes at 4° C. The plate was then centrifuged at 4000 rpm for 15 minutes at 4° C. and the top layer carefully separated, avoiding any charcoal contamination, and placed in a white, clear bottom plate (plate cat #3610, Corning Life Sciences). An equal volume of Microscint™ 40 was added and mixed well. Following the incubation for 30 minutes, readings for the radiotracer were taken using a Microbeta® trilux.
As to `CCC(c1ccc(-c2cccc(OC)c2)cn1)n1ccnc1` (stereo not drawn) [Example 7, 2-(1-(1H-imidazol-1-yl)propyl)-5-(3-methoxyphenyl)pyridine], the IC50 is 50 to 200 nM. `CCC(c1cnc(-c2ccc(O)cc2)s1)n1ccnc1` (stereo not drawn) [Example 60, 4-[5-(1-Imidazol-1-yl-propyl)-thiazol-2-yl]-phenol] had an IC50 of 201 to 10000 nM.

For `CCC(c1ccc(-c2ccc(OC)cc2)o1)n1ccnc1` (stereo not drawn) [Example 27, 1-{1-[5-(4-Methoxy-phenyl)-furan-2-y]-propyl}-1H-imidazole], the IC50 was 50 to 200 nM. In turn, `CCC(c1ccc(-c2cccc(O)c2)cn1)n1ccnc1` (stereo not drawn) [Example 8, 3-(6-(1-(1H-imidazol-1-yl)propyl)pyridin-3-yl)phenol] registered an IC50 of 50 to 200 nM.

The compound `CCC(c1ccc(-c2ccc(O)cc2)o1)n1ccnc1` (stereo not drawn) [Example 30, 4-[5-(1-Imidazol-1-yl-propyl)-furan-2-yl]-phenol] showed an IC50 below 50 nM. `CCC(c1ccc(-c2ccccc2O)cn1)n1ccnc1` (stereo not drawn) [Example 37, 2-[6-(1-Imidazol-1-yl-propyl)-pyridin-3-yl]-phenol] displayed an IC50 of 201 to 10000 nM. Same read-out and setting: to `CC(c1ccc(-c2ccc(O)cc2)s1)n1ccnc1` (stereo not drawn) [Example 49, 4-[5-(1-Imidazol-1-yl-ethyl)-thiophen-2-yl]-phenol] belongs 50 to 200 nM; to `CCC(c1cnc(-c2ccc(OC)cc2)s1)n1ccnc1` (stereo not drawn) [Example 35, 5-(1-Imidazol-1-yl-propyl)-2-(4-methoxy-phenyl)-thiazole], 201 to 10000 nM. The same measure, in the same setting: to `CCC(c1ccc(-c2ccccc2OC)cn1)n1ccnc1` (stereo not drawn) [Example 56, 2-(1-Imidazol-1-yl-propyl)-5-(2-methoxy-phenyl)-pyridine] belongs 201 to 10000 nM; to `CCOC(=O)c1ccc(-c2ccc(C(CC)n3ccnc3)nc2)cc1` (stereo not drawn) [Example 5, Ethyl 4-(6-(1-(1H-imidazol-1-yl)propyl)pyridin-3-yl)benzoate], 201 to 10000 nM.
